One compound from US20110207811A1, “USE OF CELIVARONE FOR REDUCING OCCURRENCES OF CARDIOVASCULAR HOSPITALIZATION” (SANOFI-AVENTIS, priority 2010, published 2011) can be followed below.

This experiment concerns ICD patients with a LVEF of 40% or less. The experiment is described as follows: clinical study ALPHEE: prevention of cardiovascular hospitalization. Format: in vivo. The settings on record: clinical trial using amiodarone as calibrator; oral, with a meal. The source says: The primary objective of the study is to assess the efficacy of celivarone for the prevention of ICD interventions or death. The study also aims at assessing the usefulness of celivarone for reducing occurrences of cardiovascular hospitalization in treated patients.
This is a dose-finding multicenter, multinational, randomized, double blind, placebo controlled, parallel arm study including a positive control calibrator arm. Patients are randomized to one of three doses of celivarone or placebo or to the amiodarone calibrator arm.
The efficacy of celivarone is based on data regarding appropriate ICD intervention obtained by regular ICD interrogation, performed as described below, as well as on data regarding death of the randomized patients, in particular sudden death, and on data regarding cardiovascular hospitalization occurrences.
The study includes a one week screening period, followed by a treatment period scheduled for a minimum duration of 6 months for the last patient recruited and going from the first day of treatment to the end of treatment visit to be done 10-15 days prior to the scheduled study end date. […]
Cardiovascular hospitalization is an hospitalization with a cardiovascular cause, as assessed by the investigator. […]

For the compound `CCCCc1oc2ccc(C(=O)OC(C)C)cc2c1C(=O)c1ccc(CCCN(CCCC)CCCC)cc1.O=C(O)/C=C/C(=O)O` [celivarone, 2-butyl-3-[4-[3-(dibutylamino)propyl]benzoyl]-1-benzofuran-5-carboxylic acid isopropyl ester fumarate], the “prevention of cardiovascular hospitalization” value is reported as “effective”.
